According to patent US12497371B2, “DRP-1 inhibitors as therapeutic agents” (The Florida International University Board of Trustees, priority 2023, dated 2025):

Key:
[1] = tested on: eNAMPT-mediated mitochondrial fission; assay: eNAMPT-mediated mitochondrial fission; type: cell-based; conditions: FIG. 5A
Method: (§1) FIGS. 5A-5C show the validation of novel Drp1 inhibitors as therapeutics against VILI. Three novel Drp1 inhibitors identified in the Drp1 GTPase assay were tested for their ability to attenuate eNAMPT-mediated mitochondrial fission (5A). One of the compounds CTS2444-32 was further tested in mice exposed to high tidal mechanical ventilation (40 mL/kg, PEEP=5 cm H2O, BR=75 bpm, 4 h). […] Values are mean±SEM, n=4. *P<0.05 vs. spontaneously breathing control, †P<0.05 vs. DMSO+VILI.
Three lead compounds (FIG. 4) were selected for further testing. These compounds are referred to as CTS (Center for Translational Science) 2444-19, CTS2444-20, and CTS2444-32. These compounds were examined for their ability to prevent eNAMPT-mediated mitochondrial fission.

mouse primary microglia = assay: Paraquat-treated primary microglia, qPCR of inflammatory mRNA; type: cell-based; conditions: 6 h
Method: Microglia cells were treated with paraquat (PQ) in the presence or absence of compound 2444-32. The mRNA levels of IL-1β and RelA were analyzed. Microglia isolated from Drp1+/− pups was used as a positive control.
Neuroinflammation is commonly observed in Parkinson's disease (PD) and other neurodegenerative diseases. The role of activated microglia in causing neuroinflammation by upregulating the levels of pro-inflammatory cytokines such as IL-1β and relA is implicated in PD. The protective effects of one lead compound (2444-32) was evaluated using mouse primary microglia isolated from newborn pups. As shown in the FIG. 7, these cells were treated for with paraquat (PQ), a herbicide that has been linked to increasing the risk of developing PD, in the presence or absence of compound 2444-32. After 6 h, RNA was isolated for qPCR analysis. There was a dramatic increase in the levels of IL-1β and RelA mRNA. […] As a positive control model for a partial loss of Drp1 function, microglia isolated from Drp1+/− pups was used, which express approximately 50% of Drp1 as compared to their wild-type littermates. Significant reduction in neuroinflammation was also detected in these mutant microglia treated with PQ, indicating the protective effects of 2444-32 was most likely mediated through reduced Drp1 function, not off-target effects.

LUHMES cells = assay: α-synuclein PFF aggregation in LUHMES cells (pS129 immunostaining); type: cell-based, human; conditions: PFF 24 h, then 20 μM compound for 48 h
Method: To determine the therapeutic potential of compound 2444-32 against α-synuclein, human dopaminergic neuronal cells (LUHMES cells) were treated with human α-synuclein pre-formed fibrils (PFF). After 24 h incubation, cell culture media containing PFF was removed and replaced with fresh media containing 20 μM of compound 2444-32 or vehicle control. Cells were incubated for a further 48 h before having media removed and processed for immunostaining for pS129 α-synuclein, a pathogenic form of α-synuclein. α-synuclein protein aggregates were then quantified using the IMARIS (Oxford instruments) software.

[2] = tested on: ventilator-induced lung injury (VILI); assay: VILI model: mice exposed to high tidal mechanical ventilation; type: in vivo; conditions: 10 mg/kg, i.p., 2 h
Method: as §1
CTS2444-32 (10 mg/kg, i.p., 2 h) attenuated the VILI-mediated increase in the levels of TNFα (6A), IL-6 (6B), IL-18 (6C), GROα, (6D), MIP-1α (6E), MIP-1β(6F), MCP-1 (6G), MCP-3 (6H), and IL-12p70 (6I) in the BALF. Values are mean±SEM, n=4. *P<0.05 vs. spontaneously beathing control, †P<0.05 vs. DMSO+VILI.
To validate Drp1 as a therapeutic target, four preclinical VILI/ARDS models are used: i) VILI; ii) a “two-hit” model of polymicrobial sepsis (cecal ligation and puncture, CLP) in addition to mechanical ventilation; iii) a “two-hit” COV19-pneumonia model consisting of the delivery of the COVID19 spike protein combined with mechanical ventilation and iv) the ARDS-like extended lung inflammation model in which the mice are exposed long-term to LPS. Therapeutic agents are given before the initiation of injury in the VILI-only model or at the beginning of mechanical ventilation in the “two-hit” models, or 4 d after LPS exposure in the extended lung inflammation model to mimic the situation of a critically ill patient in the ICU.

[3] = tested on: cardiac ischemia-reperfusion injury; conditions: background statement; cited from earlier work
lung cancer tumor = conditions: xenograft mouse model; background statement; cited from earlier work
cell proliferation = conditions: background statement; cited from earlier work
dynamin 1 = target: T1, dynamin 1 (Homo sapiens, UniProt Q05193); conditions: background statement; cited from earlier work
T1 sequence (Q05193 1-864): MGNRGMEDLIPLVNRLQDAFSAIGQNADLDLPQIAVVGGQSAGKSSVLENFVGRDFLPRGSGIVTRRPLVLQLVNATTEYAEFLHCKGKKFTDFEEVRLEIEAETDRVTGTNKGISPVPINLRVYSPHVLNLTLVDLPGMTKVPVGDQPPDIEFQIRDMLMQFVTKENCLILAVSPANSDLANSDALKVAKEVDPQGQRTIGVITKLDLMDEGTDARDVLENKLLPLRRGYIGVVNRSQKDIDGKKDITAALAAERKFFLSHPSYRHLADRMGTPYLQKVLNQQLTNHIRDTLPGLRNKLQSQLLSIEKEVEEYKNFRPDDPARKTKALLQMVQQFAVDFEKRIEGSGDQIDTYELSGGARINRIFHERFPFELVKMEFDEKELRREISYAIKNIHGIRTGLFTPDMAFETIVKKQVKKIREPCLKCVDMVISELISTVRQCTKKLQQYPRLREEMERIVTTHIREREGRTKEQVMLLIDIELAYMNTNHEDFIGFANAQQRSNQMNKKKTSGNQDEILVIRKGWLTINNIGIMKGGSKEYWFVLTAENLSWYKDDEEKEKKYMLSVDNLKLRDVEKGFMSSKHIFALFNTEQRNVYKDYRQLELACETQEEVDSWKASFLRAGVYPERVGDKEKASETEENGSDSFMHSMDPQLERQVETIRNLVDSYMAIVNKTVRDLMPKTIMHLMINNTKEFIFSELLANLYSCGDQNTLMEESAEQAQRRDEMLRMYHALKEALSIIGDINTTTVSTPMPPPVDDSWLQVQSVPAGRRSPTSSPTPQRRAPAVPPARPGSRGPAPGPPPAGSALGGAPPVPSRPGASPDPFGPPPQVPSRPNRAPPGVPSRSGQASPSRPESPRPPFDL

dynamin 2 = target: T2, dynamin 2 (Homo sapiens, UniProt P50570); conditions: background statement; cited from earlier work
T2 sequence (P50570 1-870): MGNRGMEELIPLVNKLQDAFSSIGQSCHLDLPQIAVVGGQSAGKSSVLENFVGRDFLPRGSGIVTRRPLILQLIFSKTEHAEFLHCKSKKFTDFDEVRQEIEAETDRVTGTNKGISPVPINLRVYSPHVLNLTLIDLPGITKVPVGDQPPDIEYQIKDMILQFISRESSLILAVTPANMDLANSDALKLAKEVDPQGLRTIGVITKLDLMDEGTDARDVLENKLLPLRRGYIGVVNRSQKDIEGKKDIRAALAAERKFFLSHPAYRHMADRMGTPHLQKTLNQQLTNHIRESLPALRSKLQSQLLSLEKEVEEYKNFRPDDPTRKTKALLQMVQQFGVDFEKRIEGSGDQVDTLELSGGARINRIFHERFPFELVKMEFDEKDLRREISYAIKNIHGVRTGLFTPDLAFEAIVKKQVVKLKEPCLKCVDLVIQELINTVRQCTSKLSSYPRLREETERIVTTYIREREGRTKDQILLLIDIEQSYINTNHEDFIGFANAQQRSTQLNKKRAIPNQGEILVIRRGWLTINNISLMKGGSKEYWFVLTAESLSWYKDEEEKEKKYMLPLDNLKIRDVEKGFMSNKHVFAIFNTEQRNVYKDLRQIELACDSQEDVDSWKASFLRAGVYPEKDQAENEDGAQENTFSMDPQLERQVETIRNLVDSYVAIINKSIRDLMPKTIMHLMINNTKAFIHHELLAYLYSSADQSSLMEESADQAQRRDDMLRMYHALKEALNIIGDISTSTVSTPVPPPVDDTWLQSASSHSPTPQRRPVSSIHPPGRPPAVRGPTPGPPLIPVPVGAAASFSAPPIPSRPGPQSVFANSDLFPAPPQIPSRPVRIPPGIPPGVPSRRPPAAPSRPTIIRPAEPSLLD

Drp1 GTPase = conditions: background statement; cited from earlier work
lung EC = assay: LPS (TLR4)-dependent mitochondrial fission in lung EC; type: cell-based; conditions: LPS 2 EU/ml, 4 h; FIG. 1C
Method: TLR^4 ligation with LPS (2 EU/ml, 4 h) also increases mitochondrial fission and this is blocked by the putative Drp1 inhibitor, mdivi-1 (1C). Data are mean±SEM. N=3-10. P<0.05 vs. control.
Using immunofluorescence microscopy, increased mitochondrial localization of Drp1 was observed (FIG. 1B).

complex I = conditions: background statement; cited from earlier work

Question: Which “increase in fission induced by eNAMPT” value [1] does the source give for `O=C(Cc1ccc(Cl)c(Cl)c1)N1CCN(Cc2csc(NCC3(c4ccccc4)CC3)n2)CC1` [Compound 2444-19] here?
Answer: not

Question: For `CCCCNc1nc(CN2CCN(C(=O)CC3CC4CCC3C4)CC2)cs1` (centres unmarked) [Compound 2444-20], which “increase in fission induced by eNAMPT” value [1] is on record?
Answer: prevent the increase in fission induced by eNAMPT

Question: For `O=C(CC1CC2CCC1C2)N1CCN(Cc2csc(NCC3CCC3)n2)CC1` (centres unmarked) [Compound 2444-32], which “paraquat-induced increase in IL-1β mRNA” value (mouse primary microglia) is on record?
Answer: significantly attenuated

Question: And the “paraquat-induced increase in RelA mRNA” value (mouse primary microglia)?
Answer: significantly attenuated

Question: What about the “α-synuclein aggregation (puncta)” value (LUHMES cells) of the same compound?
Answer: significantly reduced

Question: What about the “VILI-mediated increase in TNFα in BALF” value ([2]; FIG. 6A) of the same compound?
Answer: attenuated

Question: And the “VILI-mediated increase in IL-6 in BALF” value ([2]; FIG. 6B)?
Answer: attenuated

Question: And the “VILI-mediated increase in IL-18 in BALF” value ([2]; FIG. 6C)?
Answer: attenuated

Question: And the “VILI-mediated increase in GROα in BALF” value ([2]; FIG. 6D)?
Answer: attenuated

Question: What about the “VILI-mediated increase in MIP-1α in BALF” value ([2]; FIG. 6E) of the same compound?
Answer: attenuated

Question: And the “VILI-mediated increase in MIP-1β in BALF” value ([2]; FIG. 6F)?
Answer: attenuated

Question: And the “VILI-mediated increase in MCP-1 in BALF” value ([2]; FIG. 6G)?
Answer: attenuated

Question: What about the “VILI-mediated increase in MCP-3 in BALF” value ([2]; FIG. 6H) of the same compound?
Answer: attenuated

Question: What about the “VILI-mediated increase in IL-12p70 in BALF” value ([2]; FIG. 6I) of the same compound?
Answer: attenuated

Question: What about the “total cell counts in bronchoalveolar lavage (BAL) fluid” value ([2]; high tidal ventilation 40 mL/kg, 4 h, FIG. 5B) of the same compound?
Answer: decreases

Question: What about the “protein in bronchoalveolar lavage (BAL) fluid” value ([2]; high tidal ventilation 40 mL/kg, 4 h, FIG. 5C) of the same compound?
Answer: decreases

Question: And the lung injury ([2]; mice exposed to VILI)?
Answer: decreases lung injury

Question: And the “increase in fission induced by eNAMPT” value [1]?
Answer: prevent the increase in fission induced by eNAMPT

Question: Which results are given for `O=C1c2ccncc2C(=O)c2c1[nH]c1ccccc21` [Drpitor1a]?
Answer: protection against cardiac ischemia-reperfusion injury [3]: protect against cardiac ischemia-reperfusion injury; lung cancer tumor growth (lung cancer tumor): suppress lung cancer tumor growth; cell proliferation (cell proliferation): reduce cell proliferation

Question: Which results are given for `O=C(N/N=C/c1ccc(O)c(O)c1)c1cc2ccccc2cc1O` [Dynasore]?
Answer: inhibition of dynamin 1 (dynamin 1): blocks; inhibition of dynamin 2 (dynamin 2): blocks

Question: What does the source list for `COc1cc(-n2c(=S)[nH]c3ccccc3c2=O)c(Cl)cc1Cl` [mdivi-1]?
Answer: inhibition of Drp1 GTPase activity (Drp1 GTPase): weak and non-specific inhibitor; TLR4-dependent mitochondrial fission (lung EC): decreases TLR4-dependent mitochondrial fission; inhibition of complex I (complex I): reversible inhibitor
